The target of the assay is TYK2 (Homo sapiens, UniProt P29597). The assay can be described thus: TYK2 protein degradation in MOLT-4 cells by immunoblotting. The assay is classed as cell-based. Also noted: endogenous in cells; host or cells: MOLT-4. The settings on record: MOLT-4 cells, 24 hours. Summed up: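 MOLT-4 cells were exposed to compounds at 0.5 and 5 μM for 24 h, then lysed in RIPA buffer with protease and phosphatase inhibitors. TYK2 was detected by SDS-PAGE immunoblot with chemiluminescence, and band densitometry gave percent degradation.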
Chain of TYK2 (P29597 whole entry): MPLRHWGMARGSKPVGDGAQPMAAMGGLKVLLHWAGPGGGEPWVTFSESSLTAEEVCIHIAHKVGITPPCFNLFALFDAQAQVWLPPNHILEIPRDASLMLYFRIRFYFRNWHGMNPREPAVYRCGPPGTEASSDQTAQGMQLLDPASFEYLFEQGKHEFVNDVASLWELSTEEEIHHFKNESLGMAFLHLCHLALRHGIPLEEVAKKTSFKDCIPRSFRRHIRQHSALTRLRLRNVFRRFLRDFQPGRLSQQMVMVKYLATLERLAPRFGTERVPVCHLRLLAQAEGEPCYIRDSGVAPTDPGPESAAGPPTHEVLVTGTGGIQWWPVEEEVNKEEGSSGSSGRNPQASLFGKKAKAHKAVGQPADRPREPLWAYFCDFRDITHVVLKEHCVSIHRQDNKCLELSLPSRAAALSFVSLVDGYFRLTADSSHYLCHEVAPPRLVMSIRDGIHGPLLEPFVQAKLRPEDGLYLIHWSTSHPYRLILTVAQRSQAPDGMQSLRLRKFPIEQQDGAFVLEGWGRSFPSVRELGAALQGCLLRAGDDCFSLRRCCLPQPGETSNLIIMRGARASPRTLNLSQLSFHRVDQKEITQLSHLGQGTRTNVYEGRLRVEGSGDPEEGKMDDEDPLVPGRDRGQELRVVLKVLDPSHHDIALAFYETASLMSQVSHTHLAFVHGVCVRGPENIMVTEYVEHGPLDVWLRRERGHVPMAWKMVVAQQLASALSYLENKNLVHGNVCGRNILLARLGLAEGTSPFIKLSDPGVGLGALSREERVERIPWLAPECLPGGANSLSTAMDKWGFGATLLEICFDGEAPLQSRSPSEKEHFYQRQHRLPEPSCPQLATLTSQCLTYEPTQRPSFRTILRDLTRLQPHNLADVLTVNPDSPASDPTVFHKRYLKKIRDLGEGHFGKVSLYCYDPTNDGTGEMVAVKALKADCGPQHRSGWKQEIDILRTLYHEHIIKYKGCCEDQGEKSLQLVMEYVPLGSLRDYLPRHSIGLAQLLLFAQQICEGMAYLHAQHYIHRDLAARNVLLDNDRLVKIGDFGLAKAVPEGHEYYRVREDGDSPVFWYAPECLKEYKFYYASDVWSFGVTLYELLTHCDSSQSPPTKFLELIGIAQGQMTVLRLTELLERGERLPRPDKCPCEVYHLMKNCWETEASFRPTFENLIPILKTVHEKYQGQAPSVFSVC
A general note: A western blot detects proteins with antibodies after separation by electrophoresis.

The text below walks through data of US20240059671A1, “TYROSINE KINASE 2 (TYK2) DEGRADATION COMPOUNDS AND METHODS OF USE” (CULLGEN (SHANGHAI), INC., priority 2020, published 2024).

Bounds are passed on as bounds.

Regarding `CNC(=O)c1nnc(NC(=O)CNC(=O)CCCCCCCCCC(=O)N[C@H](C(=O)N2C[C@H](O)C[C@H]2C(=O)NCc2ccc(-c3scnc3C)cc2)C(C)(C)C)cc1Nc1cccc(-c2ncn(C)n2)c1OC` [CPD-041, N^1—((S)-1-((2S,4R)-4-Hydroxy-2-((4-(4-methylthiazol-5-yl)benzyl)carbamoyl)pyrrolidin-1-yl)-3,3-dimethyl-1-oxobutan-2-yl)-N^11-(2-((5-((2-methoxy-3-(1-methyl-1H-1,2,4-triazol-3-yl)phenyl)amino)-6-(methylcarbamoyl)pyridazin-3-yl)amino)-2-oxoethyl)undecanediamide], the “TYK2 Degradation (0.5 μM)” value amounted to 50% and the “TYK2 Degradation (5 μM)” value was found to be 30%.
As to `CNC(=O)c1nnc(NC(=O)CNC(=O)CNc2cccc3c2C(=O)N(C2CCC(=O)NC2=O)C3=O)cc1Nc1cccc(-c2ncn(C)n2)c1OC` (stereo not shown) [CPD-042, 6-(2-(2-((2-(2,6-Dioxopiperidin-3-yl)-1,3-dioxoisoindolin-4-yl)amino)acetamido)acetamido)-4-((2-methoxy-3-(1-methyl-1H-1,2,4-triazol-3-yl)phenyl)amino)-N-methylpyridazine-3-carboxamide], the “TYK2 Degradation (0.5 μM)” value is given as not above 20% and the “TYK2 Degradation (5 μM)” value is listed as not above 20%.
Regarding `CNC(=O)c1nnc(NC(=O)CNC(=O)CCNc2cccc3c2C(=O)N(C2CCC(=O)NC2=O)C3=O)cc1Nc1cccc(-c2ncn(C)n2)c1OC` (stereo not shown) [CPD-043, 6-(2-(3-((2-(2,6-Dioxopiperidin-3-yl)-1,3-dioxoisoindolin-4-yl)amino)propanamido)acetamido)-4-((2-methoxy-3-(1-methyl-1H-1,2,4-triazol-3-yl)phenyl)amino)-N-methylpyridazine-3-carboxamide], the “TYK2 Degradation (0.5 μM)” value is recorded as not above 20% and the “TYK2 Degradation (5 μM)” value is recorded as not above 20%.
For `CNC(=O)c1nnc(NC(=O)CNC(=O)CCCNc2cccc3c2C(=O)N(C2CCC(=O)NC2=O)C3=O)cc1Nc1cccc(-c2ncn(C)n2)c1OC` (stereo not shown) [CPD-044, 6-(2-(4-((2-(2,6-Dioxopiperidin-3-yl)-1,3-dioxoisoindolin-4-yl)amino)butanamido)acetamido)-4-((2-methoxy-3-(1-methyl-1H-1,2,4-triazol-3-yl)phenyl)amino)-N-methylpyridazine-3-carboxamide], the “TYK2 Degradation (0.5 μM)” value is recorded as not above 20% and the “TYK2 Degradation (5 μM)” value is listed as not above 20%.
Take `CNC(=O)c1nnc(NC(=O)CNC(=O)CCCCNc2cccc3c2C(=O)N(C2CCC(=O)NC2=O)C3=O)cc1Nc1cccc(-c2ncn(C)n2)c1OC` (stereo not shown) [CPD-045, 6-(2-(5-((2-(2,6-Dioxopiperidin-3-yl)-1,3-dioxoisoindolin-4-yl)amino)pentanamido)acetamido)-4-((2-methoxy-3-(1-methyl-1H-1,2,4-triazol-3-yl)phenyl)amino)-N-methylpyridazine-3-carboxamide]: the “TYK2 Degradation (0.5 μM)” value was found to be 40% and the “TYK2 Degradation (5 μM)” value is recorded as not above 20%.
Turning to `CNC(=O)c1nnc(NC(=O)CNC(=O)CCCCCNc2cccc3c2C(=O)N(C2CCC(=O)NC2=O)C3=O)cc1Nc1cccc(-c2ncn(C)n2)c1OC` (stereo not shown) [CPD-046, 6-(2-(6-((2-(2,6-Dioxopiperidin-3-yl)-1,3-dioxoisoindolin-4-yl)amino)hexanamido)acetamido)-4-((2-methoxy-3-(1-methyl-1H-1,2,4-triazol-3-yl)phenyl)amino)-N-methylpyridazine-3-carboxamide], the “TYK2 Degradation (0.5 μM)” value was not above 20% and the “TYK2 Degradation (5 μM)” value is given as not above 20%.
As to `CNC(=O)c1nnc(NC(=O)CNC(=O)CCCCCCNc2cccc3c2C(=O)N(C2CCC(=O)NC2=O)C3=O)cc1Nc1cccc(-c2ncn(C)n2)c1OC` (stereo not shown) [CPD-047, 6-(2-(7-((2-(2,6-dioxopiperidin-3-yl)-1,3-dioxoisoindolin-4-yl)amino)heptanamido)acetamido)-4-((2-methoxy-3-(1-methyl-H-1,2,4-triazol-3-yl)phenyl)amino)-N-methylpyridazine-3-carboxamide], the “TYK2 Degradation (0.5 μM)” value is 60% and the “TYK2 Degradation (5 μM)” value is recorded as not above 20%.
On to `CNC(=O)c1nnc(NC(=O)CNC(=O)CCCCCCCNc2cccc3c2C(=O)N(C2CCC(=O)NC2=O)C3=O)cc1Nc1cccc(-c2ncn(C)n2)c1OC` (stereo not shown) [CPD-048, 6-(2-(8-((2-(2,6-Dioxopiperidin-3-yl)-1,3-dioxoisoindolin-4-yl)amino)octanamido)acetamido)-4-((2-methoxy-3-(1-methyl-1H-1,2,4-triazol-3-yl)phenyl)amino)-N-methylpyridazine-3-carboxamide], for which the “TYK2 Degradation (0.5 μM)” value amounted to 50% and the “TYK2 Degradation (5 μM)” value was not above 20%.
Taken in the same sequence, the figures for `CNC(=O)c1nnc(NC(=O)CNC(=O)CCOCCNc2cccc3c2C(=O)N(C2CCC(=O)NC2=O)C3=O)cc1Nc1cccc(-c2ncn(C)n2)c1OC` (stereo not shown) [CPD-049, 6-(2-(3-(2-((2-(2,6-Dioxopiperidin-3-yl)-1,3-dioxoisoindolin-4-yl)amino)ethoxy)propanamido)acetamido)-4-((2-methoxy-3-(1-methyl-1H-1,2,4-triazol-3-yl)phenyl)amino)-N-methylpyridazine-3-carboxamide] were not above 20% and not above 20%.
The matching figures for `CNC(=O)c1nnc(NC(=O)CNC(=O)CCOCCOCCNc2cccc3c2C(=O)N(C2CCC(=O)NC2=O)C3=O)cc1Nc1cccc(-c2ncn(C)n2)c1OC` (stereo not shown) [CPD-050, 6-(2-(3-(2-(2-((2-(2,6-Dioxopiperidin-3-yl)-1,3-dioxoisoindolin-4-yl)amino)ethoxy)ethoxy)propanamido)acetamido)-4-((2-methoxy-3-(1-methyl-1H-1,2,4-triazol-3-yl)phenyl)amino)-N-methylpyridazine-3-carboxamide]: not above 20% and not above 20%.
As to `CNC(=O)c1nnc(NC(=O)CNC(=O)CCOCCOCCOCCNc2cccc3c2C(=O)N(C2CCC(=O)NC2=O)C3=O)cc1Nc1cccc(-c2ncn(C)n2)c1OC` (stereo not shown) [CPD-051, 6-(1-((2-(2,6-Dioxopiperidin-3-yl)-1,3-dioxoisoindolin-4-yl)amino)-12-oxo-3,6,9-trioxa-13-azapentadecan-15-amido)-4-((2-methoxy-3-(1-methyl-1H-1,2,4-triazol-3-yl)phenyl)amino)-N-methylpyridazine-3-carboxamide], the “TYK2 Degradation (0.5 μM)” value is not above 20% and the “TYK2 Degradation (5 μM)” value is reported as not above 20%.
`CNC(=O)c1nnc(NC(=O)CNC(=O)CCOCCOCCOCCOCCNc2cccc3c2C(=O)N(C2CCC(=O)NC2=O)C3=O)cc1Nc1cccc(-c2ncn(C)n2)c1OC` (stereo not shown) [CPD-052, 6-(1-((2-(2,6-Dioxopiperidin-3-yl)-1,3-dioxoisoindolin-4-yl)amino)-15-oxo-3,6,9,12-tetraoxa-16-azaoctadecan-18-amido)-4-((2-methoxy-3-(1-methyl-1H-1,2,4-triazol-3-yl)phenyl)amino)-N-methylpyridazine-3-carboxamide]: the “TYK2 Degradation (0.5 μM)” value is on record as not above 20% and the “TYK2 Degradation (5 μM)” value is on record as not above 20%.
As to `CNC(=O)c1nnc(NC(=O)CNC(=O)CCOCCOCCOCCOCCOCCNc2cccc3c2C(=O)N(C2CCC(=O)NC2=O)C3=O)cc1Nc1cccc(-c2ncn(C)n2)c1OC` (stereo not shown) [CPD-053, 6-(1-((2-(2,6-Dioxopiperidin-3-yl)-1,3-dioxoisoindolin-4-yl)amino)-18-oxo-3,6,9,12,15-pentaoxa-19-azahenicosan-21-amido)-4-((2-methoxy-3-(1-methyl-1H-1,2,4-triazol-3-yl)phenyl)amino)-N-methylpyridazine-3-carboxamide], the “TYK2 Degradation (0.5 μM)” value is reported as not above 20% and the “TYK2 Degradation (5 μM)” value is not above 20%.
With `CNC(=O)c1nnc(NC(=O)CNC(=O)CNc2ccc3c(c2)C(=O)N(C2CCC(=O)NC2=O)C3=O)cc1Nc1cccc(-c2ncn(C)n2)c1OC` (stereo not shown) [CPD-054, 6-(2-(2-((2-(2,6-Dioxopiperidin-3-yl)-1,3-dioxoisoindolin-5-yl)amino)acetamido)acetamido)-4-((2-methoxy-3-(1-methyl-1H-1,2,4-triazol-3-yl)phenyl)amino)-N-methylpyridazine-3-carboxamide], the “TYK2 Degradation (0.5 μM)” value is not above 20% and the “TYK2 Degradation (5 μM)” value is on record as not above 20%.
Take `CNC(=O)c1nnc(NC(=O)CNC(=O)CCNc2ccc3c(c2)C(=O)N(C2CCC(=O)NC2=O)C3=O)cc1Nc1cccc(-c2ncn(C)n2)c1OC` (stereo not shown) [CPD-055, 6-(2-(3-((2-(2,6-Dioxopiperidin-3-yl)-1,3-dioxoisoindolin-5-yl)amino)propanamido)acetamido)-4-((2-methoxy-3-(1-methyl-1H-1,2,4-triazol-3-yl)phenyl)amino)-N-methylpyridazine-3-carboxamide]: the “TYK2 Degradation (0.5 μM)” value is not above 20% and the “TYK2 Degradation (5 μM)” value is given as not above 20%.
In the case of `CNC(=O)c1nnc(NC(=O)CNC(=O)CCCNc2ccc3c(c2)C(=O)N(C2CCC(=O)NC2=O)C3=O)cc1Nc1cccc(-c2ncn(C)n2)c1OC` (stereo not shown) [CPD-056, 6-(2-(4-((2-(2,6-Dioxopiperidin-3-yl)-1,3-dioxoisoindolin-5-yl)amino)butanamido)acetamido)-4-((2-methoxy-3-(1-methyl-1H-1,2,4-triazol-3-yl)phenyl)amino)-N-methylpyridazine-3-carboxamide], the “TYK2 Degradation (0.5 μM)” value is on record as not above 20% and the “TYK2 Degradation (5 μM)” value was not above 20%.
For `CNC(=O)c1nnc(NC(=O)CNC(=O)CCCCNc2ccc3c(c2)C(=O)N(C2CCC(=O)NC2=O)C3=O)cc1Nc1cccc(-c2ncn(C)n2)c1OC` (stereo not shown) [CPD-057, 6-(2-(5-((2-(2,6-Dioxopiperidin-3-yl)-1,3-dioxoisoindolin-5-yl)amino)pentanamido)acetamido)-4-((2-methoxy-3-(1-methyl-1H-1,2,4-triazol-3-yl)phenyl)amino)-N-methylpyridazine-3-carboxamide], the “TYK2 Degradation (0.5 μM)” value is not above 20% and the “TYK2 Degradation (5 μM)” value is listed as not above 20%.
